Reference: PubChem BioAssay AID449735 (Southern Research Specialized Biocontainment Screening …, 2010)
The source made the active and inactive calls.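 How the source made its calls: active means drop in polymyxin IC50 at top compound dose in wild type more than twice that in PhoP-lacking strain; inactive means the rest.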

Key:
[1] = polymyxin sensitization of S. Typhimurium, late-stage follow-up, mechanism study for PhoP regulon inhibitor project, WT and phoP- strains, round 3 (AID 449735); details: S. Typhimurium WT vs phoP-, polymyxin IC50 shift, OD600, at 150 µM, stronger effect = higher value
[2] = test system: S. Typhimurium WT vs phoP-, polymyxin IC50 shift, OD600; assay: as above
[3] = measured here: WT strain IC50 shift
[4] = measured here: phoP- strain IC50 shift

Row | SMILES | polymyxin IC50 shift difference WT - phoP- [1] | polymyxin IC50 shift [1, 3] | polymyxin IC50 shift [1, 4] | IC50 [2] [µM]
1 | S=C(NCCc1ccc(Cl)cc1)Nc1ccncc1 | -0.21 (inactive) | 0.05 | 0.26 | 
2 | O=C(Nc1ccc(I)cc1)N1CCCN(Cc2ccccc2F)C1 | -8.3 (inactive) | 9.92 | 18.2 | 
3 | CCn1cc(C(=O)O)c(=O)c2cc(F)c(N3CCN(C(=S)Nc4ccccc4OC)CC3)cc21 | -0.94 (inactive) | -2.11 | -1.17 | 
4 | CCn1cc(C(=O)O)c(=O)c2cc(F)c(N3CCN(C(=S)Nc4ccccc4C)CC3)cc21 |  | 15.9 | 3.07 | 30
5 | O=C(Nc1ccc(Cl)cc1)N1CCCN(Cc2ccc(Br)cc2)C1 | -1.52 (inactive) | 1.77 | 3.29 | 
6 | O=C(Nc1ccc(Cl)cc1)N1CCCN(Cc2ccccc2Br)C1 | -4.93 (inactive) | -2.84 | 2.09 | 
